Data: patent publication US20110311484A1, “STRAINS OF […] LEUKEMIA-RELATED VIRUS AND METHODS FOR DETECTION THEREOF” (Whittemore Peterson Institute for Neuro-Immune Disease, priority 2010, published 2011)

System: XMRV
Assay: XMRV Env expression in PHA/IL-2 activated PBMC cultures, staining with SFFV env moAb
Type: cell-based
Details: PBMCs of XMRV-infected individuals, PHA/IL-2 activated for three days; inhibitor (50 nM AZT, FIG. 3) added prior to activation
Procedure: XMRV RNA could not always be detected in the PBMCs of subjects from which infectious virus had been isolated from plasma. […] We have observed that culturing these PBMCs under conditions that induce activation of T cells increases the frequency of XMRV detected by RT-PCR in the cells maintained in culture. […] To biologically increase the level of XMRV and increase the probability that XMRV sequences could be detected by PCR, PBMCs were cultured under conditions that activated T cells for 7-10 days, the RNA isolated, and nested RT-PCR analysis performed as described above.

## Cc1cn([C@H]2C[C@H](N=[N+]=[N-])[C@@H](CO)O2)c(=O)[nH]c1=O [reverse transcriptase inhibitor, zidovudine]
  XMRV expression, as measured by cell surface expression of Env: prevents the increase XMRV expression
